According to patent publication US20220039383A1, “Use of the Succinate Dehydrogenase Inhibitor Fluopyram for Controlling Claviceps Purpurea and Reducing Sclerotia in Cereals” (Bayer Aktiengesellschaft, priority 2018, published 2022):

What was measured:
[1] = system: spring wheat variety CTC Utmost; test: Field test plot 2017, Canada: yield of spring wheat treated against Claviceps purpurea; type: in vivo; conditions: EC 150 g/l, 1.333 L/HA, 200 g/ha, untreated = 100
Description: (§1) In Canada, in 2017, a test plot was conducted with the spring wheat variety CTC Utmost. Fluopyram as well as market standards were applied according to table 1 on July 7th between BBCH stage59 and 61 (. Assessment of sclerotia was done in fall 2017 96 days post application.

[2] = system: Claviceps purpurea; test: Field test plot 2017, Canada: foliar application, assessment of sclerotia (ergot bodies) in spring wheat CTC Utmost; type: in vivo; conditions: EC 150 g/l, 1.333 L/HA, 200 g/ha, applied BBCH 59-61, 96 days post application
Description: as §1

SMILES: O=C(NCCc1ncc(C(F)(F)F)cc1Cl)c1ccccc1C(F)(F)F [Fluopyram, N-{[3-chloro-5-(trifluoromethyl)-2-pyridinyl]ethyl}-2-trifluoromethylbenzamide]
- % yield compared to Untreated [1]: 109.85%
- Number of Ergot bodies per kg seed [2]: 5 per kg seed
